Values quoted from earlier work, collected in patent US11065266B2, “Method of treating melanoma using an inhibitor of an atypical protein kinase C” (UNIVERSITY OF SOUTH FLORIDA, priority 2016, dated 2021).

Molecular target: T1, PKC-ι (Homo sapiens, UniProt P41743)
T1 sequence (P41743 1-596): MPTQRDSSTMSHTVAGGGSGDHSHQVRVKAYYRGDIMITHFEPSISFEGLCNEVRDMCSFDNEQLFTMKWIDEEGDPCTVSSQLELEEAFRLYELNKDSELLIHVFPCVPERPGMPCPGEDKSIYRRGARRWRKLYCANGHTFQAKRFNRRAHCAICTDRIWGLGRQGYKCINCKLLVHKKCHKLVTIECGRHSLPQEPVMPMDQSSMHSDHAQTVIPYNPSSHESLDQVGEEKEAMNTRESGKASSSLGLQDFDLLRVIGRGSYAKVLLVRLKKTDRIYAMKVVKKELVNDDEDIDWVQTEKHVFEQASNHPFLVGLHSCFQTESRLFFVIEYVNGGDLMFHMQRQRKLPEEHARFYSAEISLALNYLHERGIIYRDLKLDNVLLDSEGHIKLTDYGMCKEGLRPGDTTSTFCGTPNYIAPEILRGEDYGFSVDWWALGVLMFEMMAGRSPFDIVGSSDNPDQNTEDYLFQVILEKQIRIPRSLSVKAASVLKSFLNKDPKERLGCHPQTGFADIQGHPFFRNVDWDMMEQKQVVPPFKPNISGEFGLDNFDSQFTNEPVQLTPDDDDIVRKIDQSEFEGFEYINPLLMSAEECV
Conditions: cited from earlier work

## O=C([O-])CC([S-])C(=O)[O-].[Au+].[Na+].[Na+] (centres unmarked) [Sodium aurothiomalate]
  binding to PKC-ι: low micromolar range

## OC[C@H]1O[C@H]([S-])[C@H](O)[C@@H](O)[C@@H]1O.[Au+] [aurothioglucose]
  binding to PKC-ι: low micromolar range
